From patent US20200246352A1, “Vanadyl and vanadate for use in reducing stress-induced metabolic derangement” (CFM Pharma Holding B.V., priority 2017, published 2020)
Values joined by “and” are separate entries in the source; they are usually repeats but may differ in a detail not shown here. Identical values can stand only once.

Legend:
healthy male Wistar rats [1] = experiment: Series 2: BMOV cumulative infusion during adrenaline (or saline) infusion, blood glucose; format: in vivo, rat
Protocol: Glucose levels were measured at t=0, 120, 140, 160, 180 and 200 min.
Blood glucose levels were measured at each time point in duplicates by directly dripping blood onto DCont TREND test strips (77 Elektronika, Budapest, Hungary). […] Blood samples were centrifuged at 4.000 rpm at 4° C. for 15 min. The prepared, separated samples derived from the centrifuged plasma (total volume 200 μl) were kept at −70° C. until shipment.

healthy male Wistar rats [2] = experiment: Example 2: BMOV pre-treatment before adrenaline-induced stress hyperglycemia, blood glucose; format: in vivo, rat
Protocol: See Table 8 and Table 9 for further details.
Measurement of glucose levels was performed by DCont TREND glucometer. DCont TREND test strips (77 Elektronika, http://www.regolymedical.hu/en/measuring-tools-and-surgicalinstruments/vercukormero-d-cont-trend.html), in duplicate in order to determine blood glucose levels. See Table 9 for the blood sampling regime during the course of the experiment.

[3] = Saline + BMOV group, 0 min, before saline and BMOV
[4] = Saline + BMOV group, 120 min of saline, before BMOV dose 1
[5] = Saline + BMOV group, 140 min, after BMOV 1 (0.34 mg/kg iv over 20 min)
[6] = Saline + BMOV group, 180 min, after BMOV 3 (2.89 mg/kg, cumulative)
[7] = Saline + BMOV group, 200 min, after BMOV 4 (8.50 mg/kg, cumulative)
[8] = Tonogen + BMOV group (adrenaline 1 μg/kg/min), 0 min, before adrenaline and BMOV
[9] = Tonogen + BMOV group, 120 min of adrenaline, before BMOV dose 1
[10] = Tonogen + 1x BMOV (15 mg/kg ip 3 h before adrenaline 0.3 microgram/kg/min), 0 min
[11] = Tonogen + 1x BMOV (15 mg/kg ip 3 h before adrenaline), 30 min
[12] = Tonogen + 1x BMOV (15 mg/kg ip 3 h before adrenaline), 60 min
[13] = Tonogen + 1x BMOV (15 mg/kg ip 3 h before adrenaline), 90 min
[14] = Tonogen + 1x BMOV (15 mg/kg ip 3 h before adrenaline), 120 min
[15] = Tonogen + 1x BMOV (15 mg/kg ip 3 h before adrenaline), 150 min
[16] = Tonogen + 1x BMOV (15 mg/kg ip 3 h before adrenaline), 180 min
[17] = Tonogen + 2x BMOV (15 mg/kg ip 16-24 h and 3 h before adrenaline 0.3 microgram/kg/min), 0 min
[18] = Tonogen + 2x BMOV (15 mg/kg ip 16-24 h and 3 h before adrenaline), 30 min
[19] = Tonogen + 2x BMOV (15 mg/kg ip 16-24 h and 3 h before adrenaline), 60 min
[20] = Tonogen + 2x BMOV (15 mg/kg ip 16-24 h and 3 h before adrenaline), 90 min
[21] = Tonogen + 2x BMOV (15 mg/kg ip 16-24 h and 3 h before adrenaline), 120 min
[22] = Tonogen + 2x BMOV (15 mg/kg ip 16-24 h and 3 h before adrenaline), 150 min
[23] = Tonogen + 2x BMOV (15 mg/kg ip 16-24 h and 3 h before adrenaline), 180 min
[24] = two doses of BMOV at different time points before stress

Cc1occc(=O)c1[O-].Cc1occc(=O)c1[O-].[O]=[V+2] [BMOV, Bis(maltolato)oxovanadium]
Effect on the increase of the glucose level (healthy male Wistar rats [1]; BMOV administered after the start of and during continued stress (adrenaline infusion)): lowers the extent of the increase of the glucose level | Blood glucose level, individual animal in duplicate (healthy male Wistar rats [1]; [3]): 4.7 mM/l and 4.8 mM/l | Blood glucose level, mean (healthy male Wistar rats [1]; [3]): 4.75 mM/l | Blood glucose level, individual animal in duplicate (healthy male Wistar rats [1]; [4]): 5.7 mM/l and 5.3 mM/l | Blood glucose level, mean (healthy male Wistar rats [1]; [4]): 5.50 mM/l | Blood glucose level, individual animal in duplicate (healthy male Wistar rats [1]; [5]): 6.3 mM/l | Blood glucose level, mean (healthy male Wistar rats [1]; [5]): 6.30 mM/l | Blood glucose level, mean (healthy male Wistar rats [1]; Saline + BMOV group, 160 min, after BMOV 2 (1.02 mg/kg, cumulative)): 6.60 mM/l | Blood glucose level, individual animal in duplicate (healthy male Wistar rats [1]; Saline + BMOV group, 160 min, after BMOV 2 (1.02 mg/kg, cumulative), 1.02 mg/kg): 6.5 mM/l and 6.7 mM/l | Blood glucose level, individual animal in duplicate (healthy male Wistar rats [1]; [6]): 5.9 mM/l | Blood glucose level, mean (healthy male Wistar rats [1]; [6]): 5.90 mM/l | Blood glucose level, individual animal in duplicate (healthy male Wistar rats [1]; [7]): 3.8 mM/l | Blood glucose level, mean (healthy male Wistar rats [1]; [7]): 3.80 mM/l | Blood glucose level, individual animals in duplicate (healthy male Wistar rats [1]; [8]): 8.4 mM/l and 7.8 mM/l and 6.0 mM/l (2×) | Blood glucose level, mean (healthy male Wistar rats [1]; [8]): 7.05 mM/l | Blood glucose level, individual animals in duplicate (healthy male Wistar rats [1]; [9]): 16.4 mM/l and 16.5 mM/l and 11.7 mM/l and 11.2 mM/l | Blood glucose level, mean (healthy male Wistar rats [1]; [9]): 13.95 mM/l | Blood glucose level, mean (healthy male Wistar rats [1]; Tonogen + BMOV group, 140 min, after BMOV 1 (0.34 mg/kg iv over 20 min)): 15.55 mM/l | Blood glucose level, individual animals in duplicate (healthy male Wistar rats [1]; Tonogen + BMOV group, 140 min, after BMOV 1 (0.34 mg/kg iv over 20 min), 0.34 mg/kg): 17.9 mM/l and 17.5 mM/l and 13.5 mM/l and 13.3 mM/l | Blood glucose level, mean (healthy male Wistar rats [1]; Tonogen + BMOV group, 160 min, after BMOV 2 (1.02 mg/kg, cumulative)): 15.18 mM/l | Blood glucose level, individual animals in duplicate (healthy male Wistar rats [1]; Tonogen + BMOV group, 160 min, after BMOV 2 (1.02 mg/kg, cumulative), 1.02 mg/kg): 14.6 mM/l and 14.5 mM/l and 15.7 mM/l and 15.9 mM/l | Blood glucose level, mean (healthy male Wistar rats [1]; Tonogen + BMOV group, 180 min, after BMOV 3 (2.89 mg/kg, cumulative)): 11.03 mM/l | Blood glucose level, individual animals in duplicate (healthy male Wistar rats [1]; Tonogen + BMOV group, 180 min, after BMOV 3 (2.89 mg/kg, cumulative), 2.89 mg/kg): 7.8 mM/l and 7.9 mM/l and 14.2 mM/l (2×) | Blood glucose level, mean (healthy male Wistar rats [1]; Tonogen + BMOV group, 200 min, after BMOV 4 (8.50 mg/kg, cumulative)): 7.28 mM/l | Blood glucose level, individual animals in duplicate (healthy male Wistar rats [1]; Tonogen + BMOV group, 200 min, after BMOV 4 (8.50 mg/kg, cumulative), 8.5 mg/kg): 4.3 mM/l and 4.4 mM/l and 10.1 mM/l and 10.3 mM/l | Effect on hyperglycemia compared to adrenaline+vehicle control group (healthy male Wistar rats [1]; adrenaline 1 μg/kg/min, at 160-180 min): significantly decreased hyperglycemia | Effect of pretreatment on occurrence of hyperglycemia (healthy male Wistar rats [2]; BMOV 3 h before stress, or at 16-24 h and 3 h before stress (adrenaline infusion)): surprisingly high reduction of the occurrence of hyperglycemia | Blood glucose, individual animals in duplicate (healthy male Wistar rats [2]; [10]): 6.1 mM/l and 6.7 mM/l and 5.1 mM/l and 4.9 mM/l and 6.3 mM/l and 5.9 mM/l | Blood glucose, mean (healthy male Wistar rats [2]; [10]): 5.833 mM/l | Blood glucose, individual animals in duplicate (healthy male Wistar rats [2]; [11]): 6.9 mM/l (2×) and 5.1 mM/l and 5.9 mM/l and 7.5 mM/l and 7.2 mM/l | Blood glucose, mean (healthy male Wistar rats [2]; [11]): 6.583 mM/l | Blood glucose, individual animals in duplicate (healthy male Wistar rats [2]; [12]): 8.4 mM/l and 8 mM/l and 6 mM/l (2×) and 9.7 mM/l and 10 mM/l | Blood glucose, mean (healthy male Wistar rats [2]; [12]): 8.017 mM/l | Blood glucose, individual animals in duplicate (healthy male Wistar rats [2]; [13]): 9.4 mM/l and 9.2 mM/l and 9.8 mM/l and 9.7 mM/l and 8.6 mM/l and 9 mM/l | Blood glucose, mean (healthy male Wistar rats [2]; [13]): 9.283 mM/l | Blood glucose, individual animals in duplicate (healthy male Wistar rats [2]; [14]): 10.7 mM/l and 11.2 mM/l and 12.2 mM/l and 11.5 mM/l and 4.6 mM/l and 4.7 mM/l | Blood glucose, mean (healthy male Wistar rats [2]; [14]): 9.15 mM/l | Blood glucose, individual animals in duplicate (healthy male Wistar rats [2]; [15]): 12.3 mM/l and 12.6 mM/l and 11.7 mM/l and 11.6 mM/l | Blood glucose, mean (healthy male Wistar rats [2]; [15]): 12.05 mM/l | Blood glucose, individual animals in duplicate (healthy male Wistar rats [2]; [16]): 12.4 mM/l and 12.2 mM/l and 11.9 mM/l (2×) | Blood glucose, mean (healthy male Wistar rats [2]; [16]): 12.1 mM/l | Blood glucose, individual animals in duplicate (healthy male Wistar rats [2]; [17]): 5.2 mM/l (2×) and 5.4 mM/l and 4.4 mM/l and 4.3 mM/l and 5.1 mM/l and 5.8 mM/l and 4.8 mM/l | Blood glucose, mean (healthy male Wistar rats [2]; [17]): 5.025 mM/l | Blood glucose, individual animals in duplicate (healthy male Wistar rats [2]; [18]): 5.2 mM/l and 4.8 mM/l and 5 mM/l (2×) and 5.3 mM/l (2×) and 6.3 mM/l and 6.1 mM/l | Blood glucose, mean (healthy male Wistar rats [2]; [18]): 5.375 mM/l | Blood glucose, individual animals in duplicate (healthy male Wistar rats [2]; [19]): 5.2 mM/l and 4.4 mM/l and 4.3 mM/l and 6.3 mM/l and 6.4 mM/l and 7.1 mM/l and 7 mM/l and 5.3 mM/l | Blood glucose, mean (healthy male Wistar rats [2]; [19]): 5.75 mM/l | Blood glucose, individual animals in duplicate (healthy male Wistar rats [2]; [20]): 5.8 mM/l (2×) and 3.4 mM/l and 3.2 mM/l and 6.4 mM/l and 6.8 mM/l and 8.5 mM/l and 8.2 mM/l | Blood glucose, mean (healthy male Wistar rats [2]; [20]): 6.0125 mM/l | Blood glucose, individual animals in duplicate (healthy male Wistar rats [2]; [21]): 6.7 mM/l (2×) and 2.7 mM/l and 2.6 mM/l and 7.4 mM/l and 7.7 mM/l and 9.1 mM/l and 8.6 mM/l | Blood glucose, mean (healthy male Wistar rats [2]; [21]): 6.4375 mM/l | Blood glucose, individual animals in duplicate (healthy male Wistar rats [2]; [22]): 7.4 mM/l and 1.4 mM/l and 1.3 mM/l and 7.7 mM/l (2×) and 7.9 mM/l and 7.6 mM/l and 7.5 mM/l | Blood glucose, mean (healthy male Wistar rats [2]; [22]): 6.0625 mM/l | Blood glucose, individual animals in duplicate (healthy male Wistar rats [2]; [23]): 6.7 mM/l and 7 mM/l and 6.8 mM/l and 4.6 mM/l and 4.8 mM/l and 6.9 mM/l | Blood glucose, mean (healthy male Wistar rats [2]; [23]): 6.133 mM/l | Effect on occurrence of hyperglycemia during the period of stress (healthy male Wistar rats [2]; first dose 16 to 24 h and second dose 3 h prior to stress): inhibited the occurrence of hyperglycemia | Effect on extent of hyperglycemia during the period of stress (healthy male Wistar rats [2]; single dose of BMOV 3 h prior to stress): reduced the extent of hyperglycemia considerably | Maximum average glucose level in the blood (healthy male Wistar rats [2]; [24]): about 6.4 mmol/l | Rise in blood glucose level (healthy male Wistar rats [2]; [24]): ≤ 28%
